Laboratory results taken from article PMC4569406, “Identification of Tetraazacyclic Compounds as Novel Potent Inhibitors Antagonizing RORγt Activity and Suppressing Th17 Cell Differentiation” (PLoS ONE, 2015).
Entries after “also recorded” stand apart in the source; their conditions may differ.

Experiments:
[1] = tested on: Th17 cell differentiation; set-up: method as in PMID 21499262, PMID 22769242; conditions: cited from earlier work
RORγt--Jurkat cells = experiment: Luciferase reporter activity in RORγt--Jurkat (RORγt-LBD negative) control cells; format: cell-based; conditions: different concentrations of PMA (100 nM, 10 nM, 1 nM), 4 and 6 hr
Procedure: (§1) Similar to the above procedure, to obtain the needed Jurkat-RORγt reporter cell lines, a total of 1x10^7 Jurkat cells were transfected with 20 μg pGL4.31 reporter plasmids by electroporation (Lonza, Swiss) according to the manufacturer’s instructions. The transfected Jurkat cells were also selected in RPMI 1640 medium containing 200 μg/mL hygromycin B. And then the 20 μg PBIND-RORγtLBD-IRES-GFP plasmids were also transfected into the stable Jurkat clone and were sorted by GFP. GFP^+-Jurkat stable cell purity was determined >96% by flow cytometry analysis and GFP^--Jurkat stable cells were also sorted (Fig 1).
RORγt^+-Jurkat (RORγt-LBD positive Jurkat cells) and RORγt^--Jurkat (RORγt-LBD negative Jurkat cells) stable cells (1x10^5) were seeded onto separate 12-well plates and cultured overnight. Cells were then stimulated with different concentrations of PMA (100 nM, 10 nM, 1 nM) or DMSO (negative control) for 4, 6, and 8 hr. […] Luciferase activity was highest in cells cultured with 100nM PMA, it was at approximately 40-fold over the DMSO control (Fig 2A and 2B). When RORγt^+-Jurkat cells were cultured for 6 hr, the luciferase activity was nearly identical across the concentrations and increased from control by about 40-fold at various concentrations (Fig 2D and 2E). […]

RORγt-LBD [2] = target: T1, RORγt-LBD (Homo sapiens, UniProt P51449); experiment: Gal4-RORγtLBD luciferase reporter assay in RORγt+-Jurkat stable cells (HTS / EC50 assay); format: cell-based; set-up: Human RORγtLBD was amplified from cDNA of human PBMC; expressed in transfected cells; host or cells: Jurkat cells stably carrying pGL4.31[luc2P/GAL4UAS/Hygro], GFP-sorted; conditions: for EC50: 5 μM to 8 nM 5-fold gradient, read-out: EC50 (anti-RORγt activity, relative luciferase activity)
T1 sequence (P51449 269-508 limits assumed): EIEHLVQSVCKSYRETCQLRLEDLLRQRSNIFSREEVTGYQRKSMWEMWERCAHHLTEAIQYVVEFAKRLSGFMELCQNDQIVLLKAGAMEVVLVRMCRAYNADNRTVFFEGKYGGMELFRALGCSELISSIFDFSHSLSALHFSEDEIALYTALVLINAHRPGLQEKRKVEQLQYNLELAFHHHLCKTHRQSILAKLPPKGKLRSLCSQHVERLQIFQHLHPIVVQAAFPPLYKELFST
Excerpt: (§2) The pGL4.31[luc2P/GAL4UAS/Hygro] reporter plasmid and the pBIND vector were purchased from Promega (USA). The fragment of IRES-GFP was first inserted into NotI sites of pBIND. Human RORγtLBD was amplified from cDNA of human PBMC (cDNA is provided by Dr. Hui Zhang) and then cloned into the pBIND-IRES-GFP to generate the fusion sequence Gal4DBD-RORγtLBD-IRES-GFP. The primers that were used to construct the pBIND-Gal4DBD-RORγtLBD-IRES-GFP plasmid are shown as follows: RORγtLBD forward 5’- […]-3’, reverse 5’- […] -3’.
as §1
RORγt^+-Jurkat stable cells (2x10^4) were seeded into 96-well round-bottom plates (Corning, Costar)and incubated in RPMI1640 complete medium overnight. At initial round screening, drug-like set compounds (Enamine, Monmouth Jct, NJ) were added using a Tecan Freedom EVO150 (Tecan, Männedorf, Schweiz) with a final concentration of 50 μM, which used by other research. 50 μM concentration is pretty high in drug screening and always raises many false positive. To reduce these false positive, we reduced the compounds concentration to 5 μM in the second round validation screening. Column 12 of each plate received only DMSO instead of any compounds as a negative control. In addition, column 1 of each plate was treated with 100 nM PMA (Sigma-Aldrich, USA) as a positive control. 6 hours later, the cells were then lysed and assayed for luciferase activity (Promega, USA) following the manufacturer’s instructions.
Jurkat-RORγt^+ stable cells were seeded into 96-well round-bottom plates (2x10^4) overnight and incubated with the compounds by 5-fold gradient, with final concentrations from 5μM to 8nM. 6h later, the cells were then lysed and assayed for luciferase activity (Promega, USA) following the manufacturer’s instructions. The values of half-maximal effective concentration (EC50) were determined by plotting the logarithm of compound concentration versus relative luciferase activity.
The EC50 and CC50 of all three compounds were determined to further identify the effects of these three tetraazacyclic compounds. […] The CC50 values of each compound in Jurkat cells were also determined as previously described in the methods section.

RORγt-LBD [3] = target: T1, RORγt-LBD; experiment: Inhibition of RORγt activity in RORγt+-293T stable reporter cells (luciferase); format: cell-based
Excerpt: as §2
The 4 μg pGL4.31 reporter plasmids (promega, USA) were transfected into 293T cells (1 x 10^6) with Lipofectamin^TM 2000 (Invitrogen, USA) according to the manufacturer’s instructions. The transfected cells were then selected in medium containing 100 μg/mL hygromycin B (Roche, USA) for 3 weeks to obtain a stable clone which express pGL4.31 reporter gene. Then 4 μg pBIND-RORγtLBD-IRES-GFP plasmids were also transfected into the stable clone. The second transfected cells were sorted by Green Fluorescent Protein (GFP). Through this process, we obtained the 293T-RORγt stable reporter cell line. GFP^+-293T stable cell purity was determined >96% by flow cytometry analysis, which yielded a RORγt^+-293T (RORγt-LBD positive 293T cells) stable reporter cell line, and GFP^--293T stable cells were also sorted and used as a RORγt negative control cell line (Fig 1).
RORγt^+-293T stable cells (1x10^4) were seeded into 96-well plates (Corning, Costar)and incubated in DMEM complete medium overnight. Then the candidates were added with a final concentration of 5 μM. Negative control (DMSO) and positive control were carried on as HTS. 6 hours later, the cells were then lysed and assayed for luciferase activity (Promega, USA) following the manufacturer’s instructions.

IL-17A secretion = IL-17A secretion by ELISA under Th17 polarizing conditions; format: cell-based, mouse; conditions: 5 μM; for IL-17A concentration in supernatant / reduction of IL-17A secretion vs vehicle-treated control cells: Th17 polarizing conditions, ELISA
Excerpt: (§3) CD4^+CD25^- T cells were isolated from spleens of 12-week-old C57BL/6 as follows: single-cell suspensions were made by crushing the spleen through a cell strainer, and red blood cells (RBCs) were lysed with an RBC lysis buffer. CD4^+ T cells were then purified using MACS magnetic cell column with a CD4^+ T cell isolation kit (Miltenyi, Biotec) according to the manufacturer’s protocol. Isolated cells were fluorescently stained with PE-conjugated anti-mouse TCR-βAb, PE-Cy7-conjugated anti-mouse CD4 Ab and APC-conjugated anti-mouse CD25 Ab (BD Bioscience, USA) and analyzed by flow cytometry.
(§4) The isolated CD4^+CD25^- T cells (3x10^6) were cultured under Th17 conditions. […] Specifically, the isolated CD4^+CD25^- T cells (3x10^6) were stimulated (in 6-well plates) with 5 μg/ml plate-bound anti-CD3e antibody (eBioscience, USA) and 2 μg/ml soluble anti-CD28 Ab (eBioscience, USA) for 24 hours. Then the activated cells were collected, resuspended and seeded into 96-well round-bottom plates (2x10^4) for Th17 differentiation in the presence of 5 ng/ml recombinant human TGF-β, 30 ng/ml recombinant mouse IL-6 (R&D systems) and DMSO as control or hit compounds with a final concentration of 5 μM. The cells were cultured for 2 days. Later, fresh medium was added (100ul/well) containing recombinant human TGF-β, recombinant mouse IL-6 (R&D systems) and the hit compounds as previously introduced for culturing another 2 days.
After 5 days of culture, the concentration of IL-17A in the supernatant was determined by an ELISA kit according to the manufacturer’s protocol (CUSABIO Systems, China).

[4] = tested on: Th17 cell differentiation; experiment: Th17 differentiation of mouse CD4+CD25- T cells, qPCR of Rorγt, Il17a, Il17f; format: cell-based; conditions: 5 μM, normalized to Gapdh; for attenuation of Il17a mRNA expression vs vehicle-treated control: Th17 polarizing conditions (TGF-β, IL-6); for suppression of Il17f mRNA expression: Th17 polarizing conditions
Excerpt: as §3, §4
After 5 days of culture, splenocyte total RNA was extracted with TRIzol (Invitrogen, USA). Then about 1000ng total RNA was added to a 20 μL reaction volume for reverse transcriptions by the GoScript Reverse Transcription System (Promega, USA) according to the manufacturer’s instructions, followed by real-time quantification using GoTaq qPCR Master Mix (Promega, USA). Gene expression of mouse Rorγt, Il17a and Il17f was normalized to the expression of Gapdh. The following primer sequences were used: Rorc forward 5’-TGTAATGTGG CCTACTCCTGCA-3’, reverse 5’-[…]-3’; Il17a forward 5’-[…]-3’, reverse 5’-[…]-3’; Il17f forward 5’-[…]-3’, reverse 5’- […]-3’; Gapdh forward 5’-[…]-3’, reverse 5’-[…]-3’.

[5] = Cell viability (MTT) assay; format: cell-based; conditions: human, wild type Jurkat cells, highest concentration 5 μM
Procedure: The cell viabilities of Jurkat cells (wild type) after treatment with chemicals were assessed by MTT technique. In brief, wild type Jurkat cells were seeded (2x10^4) and incubated with the compounds by 5-fold gradient concentrations, as described above. 48h treatment later, MTT (Dimethylthiazolyl-2-5-diphenyltetrazolium bromide) dye solution (Sigma, USA) was added into the 96-well plate and incubated at 37°C for 4 h, MTT is cleaved by live cells to a colored formazan product. After centrifugation (1500rpm, 5min) the supernatant was discarded. 100μl DMSO was added to dissolve the formazan product and gently shaken for 10min. Absorbance at 570 nm wavelength was recorded using a Thermo Scientific Multiskan FC (Thermo Scientific, USA). Each treatment was repeated in quadruplicate. Cell viabilities were defined relative to control cells (DMSO treated). The half-maximal cytotoxic concentration (CC50) for each compound was calculated from these dose-response curves with the aid of Graphpad Prism software (GraphPad Software, CA).

Structure (SMILES)	activity in Th17 cell differentiation study [1]	luciferase activity in RORγt--Jurkat cells (RORγt--Jurkat cells)	luciferase activity, fold over DMSO control (RORγt-LBD [2]; RORγt+-Jurkat cells, 100 nM PMA, 4 hr)	luciferase activity, fold increase from control (RORγt-LBD [2]; RORγt+-Jurkat cells, 100 nM, 10 nM, 1 nM PMA, 6 hr)	greatest increase in luciferase activity vs DMSO (RORγt-LBD [3]; RORγt+-293T cells, 100 nM PMA, 4 hr and 6 hr)	IL-17A concentration in supernatant (IL-17A secretion)	reduction of IL-17A secretion vs vehicle-treated control cells (IL-17A secretion)	suppression / reduction in IL-17A production (Discussion summary) (IL-17A secretion; mouse Th17 differentiation, for 11 and 14 both mRNA expression and protein secretion)	attenuation of Il17a mRNA expression vs vehicle-treated control [4]	suppression of Il17f mRNA expression [4]	inhibition at 5 µM (RORγt-LBD [2]; 5 μM, 6 hr, vs vehicle control)	EC50 (RORγt-LBD [2]; RORγt+-Jurkat cells, 6 hr)	CC50 at 48 h [5]	inhibition at 5 µM (RORγt-LBD [3]; 5 μM, 6 h, vs vehicle control)	inhibition of reporter activity in RORγt+-293T cells (RORγt-LBD [3]; 5 μM, 6 h, vs vehicle control)
CC(=O)Nc1nc(C)c(S(=O)(=O)Nc2ccc(C(O)(C(F)(F)F)C(F)(F)F)cc2)s1 [SR1001]	relatively weak activity	–	–	–	–	–	–	–	–	–	–	–	–	–	–
CCCCCCCCCCCCCC(=O)O[C@@H]1[C@@H](C)[C@@]2(O)[C@@H](C=C(CO)C[C@]3(O)C(=O)C(C)=C[C@@H]23)[C@@H]2C(C)(C)[C@]12OC(C)=O [PMA, phorbol-12-myristate-13-acetate, reference compound]	–	no significant increase	approximately 40 fold	approximately 40 fold	4–6 folds	–	–	–	–	–	–	–	–	–	–
CCN(CC)Cc1nc(Sc2nnnn2-c2ccccc2)c2c(C)c(C)sc2n1 [compound 7, N-[[5,6-dimethyl-4-(1-phenyltetrazol-5-yl)sulfanylthieno[3,2-e]pyrimidin-2-yl]methyl]-N-ethylethanamine]	–	–	–	–	–	196 pg/mL	47%	~ 50%	65%-80%	87%	75%	2600 nM	1500 nM	95%	–
Cc1cccc(C)c1-n1nnnc1Sc1ncnc2ccsc12 [compound 14, 4-[1-(2,6-dimethylphenyl)tetrazol-5-yl]sulfanylthieno[3,2-d]pyrimidine]	–	–	–	–	–	88 pg/mL	74%	–	65%-80%	did not significantly inhibited; also recorded: no significant inhibition	–	670 nM	> 5000 nM	–	significantly less inhibition
Cc1ccccc1-n1nnnc1Sc1ccnc2cc(Cl)ccc12 [compound 11, 7-chloro-4-[1-(2-methylphenyl)tetrazol-5-yl]sulfanylquinoline]	–	–	–	–	–	136 pg/mL	63%	–	65%-80%	90%	–	250 nM	> 5000 nM	–	significantly less inhibition
